Experimental data: patent publication US20110306597A1, “Nicotinamide Derivatives” (priority 2008, published 2011)
Structures can show the parent of a compound that is named as a salt.

What follows are molecules tested against human recombinant H-PGDS (Homo sapiens, UniProt O60760) (assay: Slightly modified h-PGDS TBA enzyme assay (Examples 529, 565, 566, 574-588 and 591)). Details: slightly modified assay (Examples 529, 565, 566, 574-588 and 591); 1:40,000 human recombinant H-PGDS.
Type: biochemical
Procedure: Prostaglandin D Synthase (PGDS) converts the substrate prostaglandin H2 (PGH2) to prostaglandin D2. The depletion of PGH2 was measured via an Fe(II) reduction of the remaining PGH2 to malondialdehyde (MDA) and 12-HHT. The enzyme assay is based on the quantitative formation of a fluorescent complex from the non-fluorescent compounds MDA and 2-thiobarbituric acid (TBA), substantially as described in U.S. patent application publication US-2004/152148 by Lombardt.
Examples 529, 565, 566, 574-588 and 591 were tested in a slightly modified assay: The enzyme assay (30 μls during biological process) contained 100 mM Trizma pH 8.0, 100 μM MgCl2, 0.1 mg/ml IgG Rabbit serum, 5.0 μM PGH2 (Cayman; ethanol solution, #17020), 2.5 mM L-Glutathione (Sigma; reduced form #G4251), 1:40,000 human recombinant H-PGDS (from 1 mg/ml), 0.5% DMSO and inhibitor (varying concentration). 3 μls of diluted inhibitor (dissolved in DMSO) was plated into a 384-well assay plate followed by a 24 μl addition of an enzyme solution containing h-PGDS, Trizma, MgCl2, IgG and L-Glutathione. After pre-incubation of inhibitor and enzyme solution for 10 minutes at room temperature, the reaction was initiated with a 3 μl addition of substrate solution in 10 mM HCl. The reaction was terminated after 40 second by the addition of 3 μl stop buffer containing FeCl2 and citric acid. After addition of 45 μls of TBA plates were heated for one hour in a 70° C. oven. Plates were cooled at room temperature overnight and read on a plate reader the next day with excitation @ 530 nm and emission @ 560 nm. IC50's of inhibitors were calculated with a 4-parameter fit using 11 inhibitor concentrations in duplicate with ½ log serial dilutions. Controls on each plate included no inhibitor (zero % effect) and an inhibitor 500-fold in excess of its' IC50 (100% effect). The highest inhibitor concentration tested was typically 10 μM.

Chain of human recombinant H-PGDS (O60760 whole entry): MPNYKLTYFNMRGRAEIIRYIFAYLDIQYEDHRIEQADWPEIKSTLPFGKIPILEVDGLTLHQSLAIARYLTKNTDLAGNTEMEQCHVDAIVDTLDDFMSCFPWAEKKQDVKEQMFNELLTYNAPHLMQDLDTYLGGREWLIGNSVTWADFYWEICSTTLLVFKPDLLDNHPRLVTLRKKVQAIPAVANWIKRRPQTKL

Row | Compound | IC50 [nM]
1 | CNCCNC(=O)c1ccc(-c2cccc(F)c2)nc1 [Example 578, 6-(3-Fluorophenyl)-N-(2-(methylamino)ethyl)nicotinamide hydrochloride] | 758
2 | O=C(NCC1CC1)c1ccc(-c2cccc(F)c2)nc1 [Example 579, N-(Cyclopropylmethyl)-6-(3-fluorophenyl)nicotinamide] | 128
3 | CCNC(=O)c1ccc(-c2cccc(F)c2)nc1 [Example 580, N-Ethyl-6-(3-fluorophenyl)nicotinamide] | 222
4 | O=C(O)CCNC(=O)c1ccc(-c2cccc(F)c2)nc1 [Example 581, N-{[6-(3-Fluorophenyl)pyridin-3-yl]carbonyl}-beta-alanine] | 197
5 | O=C(CCNC(=O)c1ccc(-c2cccc(F)c2)nc1)N[C@H]1CC[C@H](O)CC1 [Example 582, 6-(3-Fuorophenyl)-N-{3-[(trans-4-hydroxycyclohexyl)amino]-3-oxopropyl}nicotinamide] | 34.2
6 | CC(C)OCCNCCNC(=O)c1ccc(-c2cccc(F)c2)nc1 [Example 583, 6-(3-Fluorophenyl)-N-(2-(2-isopropoxyethylamino)ethyl)nicotinamide] | 277
7 | O=C(N[C@H]1C[C@H]2CC[C@@H](C1)N2)c1ccc(-c2cccc(F)c2)nc1 [Example 584, N-[(3-endo)-8-azabicyclo[3.2.1]oct-3-yl]-6-(3-fluorophenyl)nicotinamide] | 196
8 | CCCN1[C@@H]2CC[C@H]1C[C@@H](NC(=O)c1ccc(-c3cccc(F)c3)nc1)C2 [Example 585, 6-(3-Fluorophenyl)-N-[(3-endo)-8-propyl-8-azabicyclo[3.2.1]oct-3-yl]nicotinamide] | 176
9 | CC(C)(C)OC(=O)N1[C@@H]2CC[C@H]1C[C@@H](NC(=O)c1ccc(-c3cccc(F)c3)nc1)C2 [Example 586, tert-Butyl (3-endo)-3-({[6-(3-fluorophenyl)pyridin-3-yl]carbonyl}amino)-8-azabicyclo[3.2.1]octane-8-carboxylate] | 8.78
10 | O=C(N[C@@H]1C[C@H]2CC[C@@H](C1)N2)c1ccc(-c2cccc(F)c2)nc1 [Example 587, N-[(3-exo)-8-azabicyclo[3.2.1]oct-3-yl]-6-(3-fluorophenyl)nicotinamide] | 39.2
11 | CC(C)(C)OC(=O)N1[C@@H]2CC[C@H]1C[C@H](NC(=O)c1ccc(-c3cccc(F)c3)nc1)C2 [Example 588, tert-Butyl (3-exo)-3-({[6-(3-fluorophenyl)pyridin-3-yl]carbonyl}amino)-8-azabicyclo[3.2.1]octane-8-carboxylate] | 15.4
12 | CC(C)S(=O)(=O)N1[C@@H]2CC[C@H]1C[C@H](NC(=O)c1ccc(-c3cccc(F)c3)nc1)C2 [Example 591, 6-(3-Fluorophenyl)-N-[(3-exo)-8-(isopropylsulfonyl)-8-azabicyclo[3.2.1]oct-3-yl]nicotinamide] | 3.76
